# Earlier results in patent US11458199B2, “Liposome formulations” (OPKO Pharmaceuticals, LLC, priority 2012, dated 2022).
# Experiments:
# PCME = conditions: retrospective study, prevention of PCME after cataract surgery
# VEGF = conditions: read-out: binding affinity to VEGF (Kd)
# VEGF, sequence (P15692 214-315 limits assumed): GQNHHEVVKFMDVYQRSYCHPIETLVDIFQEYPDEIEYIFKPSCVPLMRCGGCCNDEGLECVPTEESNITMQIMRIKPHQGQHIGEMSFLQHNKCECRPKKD
Compound,postoperative rate of macular edema (PCME),Kd (VEGF)
"C[C@@H]1C[C@H]2[C@@H]3CCC4=CC(=O)C=C[C@]4(C)[C@@]3(F)[C@@H](O)C[C@]2(C)[C@@]1(O)C(=O)COP(=O)(O)O [dexamethasone sodium phosphate 0.1%, dexamethasone sodium phosphate]",4.1%,–
"CC(=O)OCC(=O)[C@@]1(O)CC[C@H]2[C@@H]3CCC4=CC(=O)C=C[C@]4(C)[C@H]3[C@@H](O)C[C@@]21C [prednisolone acetate 1%, prednisolone acetate]",4.0%,–
Ranibizumab: recombinant humanized IgG1 kappa isotype monoclonal antibody fragment that binds VEGF-A,–,~0.14 nM
